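The compound was tested at five concentrations on cells cultured in 96-well plates, with a 48-hour exposure period. GI50: concentration for 50% inhibition of growth.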 Activity calls are given as the source filed them. Cut-off read from the data, not from the text of the source: active = GI50 up to about 1.1 µM and inactive = higher.

Test systems include A498; HL-60; SW-620; LOX IMVI; SK-MEL-28; COLO 205; HT-29; MDA-MB-231; CCRF-CEM; SF-268; SK-MEL-2; NCI-H226; HCT-116; DU-145; HOP-92; SK-MEL-5; UACC-257; UO-31; HCC 2998; Hs-578T.
Holding throughout (assay): DTP human tumour cell line panel, 48 h

Turning to `O=C1C=C(c2c(O)ccc3ccccc23)c2ccccc2C1=O`, the GI50 is 8.51 µM (inactive) in the assay with A498; 2.65 µM (inactive) with HL-60; 2.09 µM (inactive) in the assay on SW-620; 1.77 µM (inactive) in the assay on LOX IMVI; 9.95 µM (inactive) in the assay with SK-MEL-28; 6.76 µM (inactive) in the assay on COLO 205. Moreover, the GI50 with HT-29 was 6.97 µM (inactive); with MDA-MB-231, 3.85 µM (inactive); in the assay with CCRF-CEM, 1.86 µM (inactive); with SF-268, 6.12 µM (inactive); in the assay on SK-MEL-2, 4.68 µM (inactive); in the assay with NCI-H226, 9.77 µM (inactive). The GI50 with HCT-116 is 2.15 µM (inactive); in the assay with DU-145 it was 10.9 µM (inactive); with HOP-92 it was 2.22 µM (inactive); in the assay with SK-MEL-5, 2.51 µM (inactive); in the assay on UACC-257, 2.39 µM (inactive); in the assay with UO-31 it was 2.24 µM (inactive). Moreover, the GI50 in the assay on HCC 2998 is 11.7 µM (inactive).

`COC(=O)[C@@H]1C[C@@H]2c3ccccc3N(S(=O)(=O)c3ccccc3)[C@@H]2N1C(=O)OC`: the GI50 with HL-60, with SW-620, with LOX IMVI, with SK-MEL-28, in the assay with Hs-578T and in the assay with COLO 205 was > 100 µM (inactive) each time. Besides, the GI50 in the assay with HT-29, with MDA-MB-231, with CCRF-CEM, in the assay on SF-268, with SK-MEL-2 and in the assay on NCI-H226 was > 100 µM (inactive) throughout. Besides, the GI50 in the assay on HCT-116 was > 100 µM (inactive); in the assay with DU-145 it was 35.2 µM (inactive); in the assay on HOP-92, > 100 µM (inactive); in the assay on SK-MEL-5, > 100 µM (inactive); in the assay with UACC-257 it was > 100 µM (inactive); with UO-31, > 100 µM (inactive). Besides, the GI50 in the assay with HCC 2998 was > 100 µM (inactive).

`O=C(NNC(=S)Nc1cccc(Cl)c1)c1cc(-c2ccccc2)nc2ccccc12`: the GI50 was 14.6 µM (inactive) in the assay with SW-620; 12.4 µM (inactive) in the assay with SK-MEL-28; 19.6 µM (inactive) in the assay on Hs-578T; 12.9 µM (inactive) in the assay with COLO 205; 20.4 µM (inactive) with HT-29; 13.1 µM (inactive) with MDA-MB-231. For the same compound, the GI50 was 10.2 µM (inactive) with CCRF-CEM; 17 µM (inactive) in the assay with SF-268; 13.8 µM (inactive) in the assay with SK-MEL-2; 20 µM (inactive) in the assay on NCI-H226; 15.4 µM (inactive) in the assay on HCT-116; 15.6 µM (inactive) with DU-145. The GI50 in the assay with HOP-92 was 12.5 µM (inactive); with SK-MEL-5, 16.9 µM (inactive); with UACC-257 it was 15.7 µM (inactive); in the assay with UO-31, 15.1 µM (inactive); in the assay with HCC 2998, 12.6 µM (inactive).

On to `CN(C)C1=Nc2ccccc2C(=S)N2CSCC12` (stereo not given), for which the GI50 with A498 was > 100 µM (inactive); in the assay with SW-620, 34.8 µM (inactive); in the assay with LOX IMVI it was 43.3 µM (inactive); in the assay with SK-MEL-28, 81.1 µM (inactive); in the assay with Hs-578T, 77.3 µM (inactive); in the assay on COLO 205, 22.3 µM (inactive). The GI50 in the assay on HT-29 was 75.9 µM (inactive); in the assay with MDA-MB-231, 44.3 µM (inactive); in the assay on CCRF-CEM, 16.4 µM (inactive); with SF-268, > 100 µM (inactive); with SK-MEL-2, > 100 µM (inactive); in the assay on NCI-H226, > 100 µM (inactive). The GI50 with HCT-116, with DU-145, in the assay with SK-MEL-5, in the assay with UACC-257, in the assay on UO-31 and with HCC 2998 was > 100 µM (inactive) each time.

Turning to `CSc1c(C#N)c2n(c3ccccc3[n+]2C)c2ncccc12`, the GI50 in the assay on A498 was 25.8 µM (inactive); in the assay on SW-620, 20.2 µM (inactive); with LOX IMVI, 14.4 µM (inactive); in the assay with SK-MEL-28, 21.4 µM (inactive); in the assay with Hs-578T it was 36.7 µM (inactive); in the assay with COLO 205 it was 13.8 µM (inactive). Besides, the GI50 was 26.7 µM (inactive) in the assay with HT-29; 18.5 µM (inactive) with MDA-MB-231; 24.2 µM (inactive) in the assay with CCRF-CEM; 29.4 µM (inactive) in the assay on SF-268; 20.1 µM (inactive) with SK-MEL-2; 16.2 µM (inactive) with NCI-H226. In addition, the GI50 is 24.2 µM (inactive) in the assay with HCT-116; 13.9 µM (inactive) with DU-145; 12.9 µM (inactive) in the assay on SK-MEL-5; 16.1 µM (inactive) with UO-31; 30.1 µM (inactive) in the assay with HCC 2998.

Take `CC(C)CCNC(=O)c1ccc(CNC(=O)/C=C/c2ccc(-c3ccccc3[N+](=O)[O-])o2)cc1`: the GI50 is 11.6 µM (inactive) in the assay on HL-60; 41.5 µM (inactive) in the assay on SW-620; > 100 µM (inactive) with LOX IMVI; 16.6 µM (inactive) in the assay with SK-MEL-28; > 100 µM (inactive) in the assay with COLO 205; > 100 µM (inactive) with MDA-MB-231. Further, the GI50 in the assay with CCRF-CEM was 12.2 µM (inactive); in the assay with SF-268, 18.6 µM (inactive); in the assay on SK-MEL-2 it was 95.7 µM (inactive); in the assay with NCI-H226, 21.9 µM (inactive); in the assay on HCT-116, 34.2 µM (inactive); with DU-145, 64.9 µM (inactive). Moreover, the GI50 was > 10 µM (inactive) with HOP-92; 18.1 µM (inactive) in the assay on SK-MEL-5; 47 µM (inactive) with UACC-257; 76.7 µM (inactive) in the assay on UO-31; > 100 µM (inactive) in the assay with HCC 2998.

Regarding `NC(=O)c1cn(C2OC(CO)C(O)C2O)c2nc[n+]([O-])c(N)c12` (stereo not given), the GI50 with SW-620 is 0.0409 µM (active); in the assay on LOX IMVI, 0.104 µM (active); in the assay with SK-MEL-28 it was 0.341 µM (active); with Hs-578T, 0.951 µM (active); in the assay with COLO 205 it was 0.201 µM (active); in the assay on HT-29 it was 0.143 µM (active). The 50% growth inhibitory concentration (GI50) with MDA-MB-231 is 0.342 µM (active); in the assay on CCRF-CEM, 0.1 µM (active); in the assay on SF-268, 0.23 µM (active); in the assay with SK-MEL-2 it was 0.157 µM (active); in the assay on NCI-H226, 0.211 µM (active); in the assay with HCT-116, 0.0206 µM (active). Further, the GI50 in the assay on DU-145 is 0.104 µM (active); in the assay on HOP-92, 0.67 µM (active); with SK-MEL-5 it was 0.0333 µM (active); with UACC-257, 0.244 µM (active); in the assay on UO-31, 0.382 µM (active).

Consider `COc1cc(S(=O)(=O)Nc2ccc(-c3csc(N4C(=O)C(C)SC4c4ccccc4O)n3)cc2)ccc1Cl` (stereo not given), for which the GI50 in the assay on A498 was > 100 µM (inactive); in the assay with HL-60, 27.3 µM (inactive); with SW-620, 34.8 µM (inactive); in the assay with LOX IMVI, 29.9 µM (inactive); in the assay on SK-MEL-28, 16.1 µM (inactive); with Hs-578T, 31.2 µM (inactive). Moreover, the GI50 in the assay on COLO 205 is 25.2 µM (inactive); in the assay with HT-29, 56.9 µM (inactive); in the assay on CCRF-CEM, 25.9 µM (inactive); in the assay with SF-268, 21.3 µM (inactive); in the assay with SK-MEL-2, 42 µM (inactive); in the assay with NCI-H226 it was 28.6 µM (inactive). The GI50 with HCT-116 was 30.1 µM (inactive); in the assay on DU-145, 41.3 µM (inactive); with HOP-92 it was 31.3 µM (inactive); with SK-MEL-5 it was 32.1 µM (inactive); in the assay on UO-31 it was 38.6 µM (inactive).

On to `CC1(N2CCOCC2)CC2C(=[N+]1[O-])CCC/C2=N/O` (stereo not given), for which the GI50 in the assay with SW-620, in the assay with LOX IMVI, in the assay on SK-MEL-28, in the assay on Hs-578T, with HT-29 and in the assay with MDA-MB-231 was > 100 µM (inactive) throughout. Further, the GI50 with CCRF-CEM, in the assay with SF-268, in the assay with SK-MEL-2, with NCI-H226, in the assay on HCT-116 and with SK-MEL-5 was > 100 µM (inactive) throughout. For the same compound, the GI50 in the assay on UACC-257, with UO-31 and with HCC 2998 was > 100 µM (inactive) in each case.

Turning to `CC1C(c2ccccc2)O[B-](F)(c2ccccc2)[NH+]1C` (stereo not given), the GI50 with A498, in the assay with HL-60, in the assay with SW-620, with LOX IMVI, with SK-MEL-28 and in the assay with COLO 205 was > 100 µM (inactive) each time. Further, the GI50 in the assay with HT-29, in the assay on MDA-MB-231, with CCRF-CEM, in the assay on SF-268, in the assay on NCI-H226 and in the assay on HCT-116 was > 100 µM (inactive) throughout. Further, the GI50 in the assay on DU-145, in the assay with HOP-92, with SK-MEL-5, in the assay with UACC-257, with UO-31 and with HCC 2998 was > 100 µM (inactive) in each case.

On to `O=C1Cc2c([nH]c3ccc(Br)cc23)-c2cc(Br)ccc2N1`, for which the GI50 in the assay on A498, in the assay on SW-620, in the assay with LOX IMVI, in the assay on SK-MEL-28, with COLO 205 and in the assay with MDA-MB-231 was > 100 µM (inactive) each time. In addition, the GI50 in the assay on CCRF-CEM, in the assay with SF-268, in the assay with SK-MEL-2, with NCI-H226, in the assay on DU-145 and in the assay with HOP-92 was > 100 µM (inactive) each time. Further, the GI50 with SK-MEL-5, in the assay with UACC-257, in the assay with UO-31 and in the assay on HCC 2998 was > 100 µM (inactive) in each case.

These data come from ChEMBL document CHEMBL1201862, “PubChem BioAssay data set” (2004).
